Assays:
[1] = tested on: LLC lung cell transplants; test: syngeneic subcutaneous LLC lung cancer mouse model: tumor growth and survival; assay type: in vivo, female C57BL6/J mice
Procedure: (§1) As for experiments employing the use of chemotherapy, carboplatin (Sindan, 10mg/ml), oxaliplatin (Mylan, 5mg/ml in infusion solution) and paclitaxel (Accord, 6mg/ml in 527mg/ml polyoxyethylated castor oil and 391 mg/ml ethanol) were provided by Istituto Nazionale dei Tumori, Milano.
(§2) The impact of oral Leucine supplementation, as given at a daily dose of 500 mg/Kg Leucine by oral gavage, was investigated on in vivo tumor growth and mouse survival in orthotopic (4T1 and E0771 TNBC cells injected in the mammary fat pad of female BALB/c mice and female C57BL6/J mice, respectively) or subcutaneous (CT26: murine colorectal carcinoma - CRC, or LLC: murine […] lung carcinoma cells, injected in the subcutaneous tissue of female BALB/c mice and female C57BL6/J mice, respectively) syngeneic tumor models.

4T1-luc cell transplants = test: syngeneic orthotopic 4T1 TNBC mouse model: tumor growth and survival; assay type: in vivo, female BALB/c mice
Procedure: as §1, §2

E0771 cell transplants = test: syngeneic orthotopic E0771 TNBC mouse model: tumor growth and survival; assay type: in vivo, female C57BL6/J mice
Procedure: as §1, §2

[2] = tested on: CT26 CRC cell transplants; test: syngeneic subcutaneous CT26 colorectal cancer mouse model: tumor growth and survival; assay type: in vivo, female BALB/c mice
Procedure: as §1, §2

[3] = tested on: syngeneic mouse tumor models; conditions: Leucine + anti-PD-L1 immunotherapy, tumor model not stated
[4] = carboplatin alone, 50 mg/kg once a week i.p.
[5] = paclitaxel alone, 30 mg/kg once a week i.p.
[6] = oxaliplatin alone, 5 mg/kg once a week i.p.
[7] = Leucine 500 mg/kg daily oral gavage + anti-PD-L1 MoAb 100 ug per mouse i.p. every other day, 4 cycles
[8] = Leucine 500 mg/kg daily oral gavage + cyclic fasting (48-hour water-only fasting, repeated every 7 days)
[9] = Leucine 500 mg/kg daily oral gavage + oxaliplatin 5 mg/kg once a week i.p., effect less evident, yet still statistically significant
[10] = Leucine 500 mg/kg once a day by oral gavage, alone, standard diet
[11] = Leucine 500 mg/kg daily oral gavage + paclitaxel 30 mg/kg once a week i.p., most relevant effects in this model
[12] = Leu + fasting + anti-PD-L1, compared to anti-PDL1 MoAb + fasting
[13] = Leucine 500 mg/kg daily + cyclic fasting + carboplatin 50 mg/kg weekly + anti-PD-L1 MoAb, compared to the fasting-Leucine doublet
[14] = Leucine 500 mg/kg daily oral gavage + carboplatin 50 mg/kg once a week i.p., effect less evident, yet still statistically significant

For `N.N.O=C([O-])C1(C(=O)[O-])CCC1.[Pt+2]` [carboplatin, reference compound], the animal survival [1, 4] was “statistically significant prolongation of animal survival”, the “in vivo tumor growth” value [1, 4] was “slowed down in vivo tumor growth” and the animal survival (4T1-luc cell transplants; [4]) was “statistically significant prolongation of animal survival”. The “in vivo tumor growth” value (4T1-luc cell transplants; [4]) was “slowed down in vivo tumor growth”.
For `CC(=O)O[C@H]1C(=O)[C@@]2(C)[C@H]([C@H](OC(=O)c3ccccc3)[C@]3(O)C[C@H](OC(=O)[C@H](O)[C@@H](NC(=O)c4ccccc4)c4ccccc4)C(C)=C1C3(C)C)[C@]1(OC(C)=O)CO[C@@H]1C[C@@H]2O` [paclitaxel, reference compound], the animal survival (E0771 cell transplants; [5]) was “statistically significant prolongation of animal survival” and the “in vivo tumor growth” value (E0771 cell transplants; [5]) was “slowed down in vivo tumor growth”.
In the case of `O=C1[O][Pt]2([NH][C@@H]3CCCC[C@H]3[NH]2)[O]C1=O` [oxaliplatin, reference compound], the animal survival [2, 6] is reported as “statistically significant prolongation of animal survival” and the “in vivo tumor growth” value [2, 6] is reported as “slowed down in vivo tumor growth”.
`CC(C)C[C@H](N)C(=O)O` [Leucine] was tested, and the animal survival ([2]; Leucine 500 mg/kg daily + cyclic fasting + oxaliplatin 5 mg/kg weekly + anti-PD-L1 MoAb, compared to the fasting-Leucine doublet) was “meaningful prolongation of animal survival”, the animal survival [2, 7] was “prolonged animal survival” and the “in vivo tumor growth” value [2, 7] was “cooperatively slowed down in vivo tumor growth”. The animal survival [2, 8] was “significant prolongation of animal survival”, the “in vivo tumor growth” value [2, 8] was “cooperative reduction of in vivo tumor growth” and the animal survival [2, 9] was “prolonging animal survival”. The “in vivo tumor growth” value [2, 9] was “cooperated with chemotherapy in slowing down in vivo tumor growth”, the animal survival [2, 10] was “prolonged animal survival” and the primary tumor growth [2, 10] was “slowed down primary tumor growth”. For the same compound, the primary tumor ([2]; quadruple treatment: Leucine + cyclic fasting + oxaliplatin + anti-PD-L1 MoAb) was “complete regression of the primary tumor in some mice”, the animal survival (E0771 cell transplants; Leucine 500 mg/kg daily + cyclic fasting + paclitaxel 30 mg/kg weekly + anti-PD-L1 MoAb, compared to the fasting-Leucine doublet) was “meaningful prolongation of animal survival” and the animal survival (E0771 cell transplants; [7]) was “prolonged animal survival”. The “in vivo tumor growth” value (E0771 cell transplants; [7]) was “cooperatively slowed down in vivo tumor growth”, the animal survival (E0771 cell transplants; [8]) was “significant prolongation of animal survival” and the “in vivo tumor growth” value (E0771 cell transplants; [8]) was “cooperative reduction of in vivo tumor growth”. For the same compound, the animal survival (E0771 cell transplants; [11]) was “prolonging animal survival”, the “in vivo tumor growth” value (E0771 cell transplants; [11]) was “cooperated with chemotherapy in slowing down in vivo tumor growth” and the animal survival (E0771 cell transplants; [10]) was “prolonged animal survival”. For the same compound, the primary tumor growth (E0771 cell transplants; [10]) was “slowed down primary tumor growth”, the primary tumor (E0771 cell transplants; quadruple treatment: Leucine + cyclic fasting + paclitaxel + anti-PD-L1 MoAb) was “complete regression of the primary tumor in some mice” and the primary tumor mass ([3]; observed in some animals) was “completed disappearance of the primary tumor mass”. The “survival of some mice” value ([3]; some mice) was “long-term survival”, the animal survival [1, 12] was “prolonged animal survival” and the tumor growth [1, 12] was “significantly slowed down tumor growth”. The animal survival [1, 13] was “meaningful prolongation of animal survival”, the animal survival [1, 14] was “prolonging animal survival” and the “in vivo tumor growth” value [1, 14] was “cooperated with chemotherapy in slowing down in vivo tumor growth”. The animal survival [1, 8] was “significant prolongation of animal survival”, the “in vivo tumor growth” value [1, 8] was “cooperative reduction of in vivo tumor growth” and the animal survival [1, 10] was “prolonged animal survival”. For the same compound, the primary tumor growth [1, 10] was “slowed down primary tumor growth”, the animal survival (4T1-luc cell transplants; [13]) was “meaningful prolongation of animal survival” and the animal survival (4T1-luc cell transplants; [7]) was “prolonged animal survival”. The “in vivo tumor growth” value (4T1-luc cell transplants; [7]) was “cooperatively slowed down in vivo tumor growth”, the animal survival (4T1-luc cell transplants; [14]) was “prolonging animal survival” and the “in vivo tumor growth” value (4T1-luc cell transplants; [14]) was “cooperated with chemotherapy in slowing down in vivo tumor growth”. The animal survival (4T1-luc cell transplants; [8]) was “significant prolongation of animal survival”, the “in vivo tumor growth” value (4T1-luc cell transplants; [8]) was “cooperative reduction of in vivo tumor growth” and the animal survival (4T1-luc cell transplants; [10]) was “prolonged animal survival”. The primary tumor growth (4T1-luc cell transplants; [10]) was “slowed down primary tumor growth”.

Source: patent publication EP4599826A1, “LEUCINE FOR USE IN THE TREATMENT OF CANCER” (priority 2024, dated 2025)
